Results published in US20240277873A1, “ULTRABRIGHT […] PROBES FOR DETECTION AND IMAGING” (Nanyang Technological University, priority 2021, published 2024).
Read-outs that look alike come from different tables or passages of the source. Blank lines part the entries; values can stand above or below the compound they belong to. Residues, ends and D or L forms follow the SMILES beside them. *: point of attachment. X1 = COC(=O)/C=C/c1ccc(C2(OC)OOC23C2CC4CC(C2)CC3C4)cc1OCc1ccc(N*)cc1

Legend:
[1] = Fluorescence quantum yield of activated probes; assay type: physicochemical; settings: Rhodamine B as standard (QY 36%), PBS (10 mM, pH 7.4)
Method: (§1) The chemiluminescence QYs of BOPDSu, BTPDSu, MBPDSu, and MPDSu (20 μM) were measured in the presence of O2^•- (100 μM) in PBS (10 mM, pH 7.4, 10% DMSO) at 37° C. The fluorescence QYs were determined by using Rhodamine B as a standard dye (QY 36%) in PBS (10 mM, pH 7.4) (X. Zhen et al., ACS Nano 2016, 10, 6400-6409). The fluorescence QY of AMPD was obtained from the literature (O. Green et al., ACS Cent. Sci. 2017, 3, 349-358).

[2] = obtained from the literature (ACS Cent. Sci. 2017, 3, 349-358); cited from earlier work
[3] = Half-life and CL emission of uncaged BTPD in PBS; assay type: physicochemical; settings: in PBS (10% DMSO) at 37° C.
Method: FIG. 13 depicts the half-lives of BTPDSu (20 μM) and BTPD (20 μM) in pure DMSO upon addition of excess O2^•- (100 μM) and in 10 mM PBS (10% DMSO, pH 7.4) at 37° C., respectively.

dorsal skins of mice = assay: Histopathologic, immunohistochemical and flow cytometry analyses of dorsal skins (IMQ psoriasis model); assay type: in vivo, BALB/c mice
Method: The control group was treated with Vaseline (50 mg/d) and the IMQ-treatment group was applied with IMQ cream (60 mg/d, 5%) once a day. […] Probe BTPDNe (10 uM, 1 mM in DMSO) was thoroughly mixed with Aquaphor (˜10 mg) and applied for psoriasis imaging, followed by poly(methyl methacrylate) microneedle treatment for 1 min. Then, chemiluminescent signals at different time-points (0, 3, 5, 10, 15, 30, 45 and 60 min) after probe-treatment were recorded using IVIS system bioluminescence with acquiring time of 180 s. Until the third day, all the mice were sacrificed to collect tissue and blood for further experiments (hematoxylin and eosin (H&E) staining and flow cytometry analysis) as described in Example 11.
The dorsal skin samples were separated and soaked in 4% paraformaldehyde (4% PFA) for 12 h and immersed in 30% sucrose solution. The skin samples were stained by hematoxylin and eosin (H&E). Then, the samples were flash-frozen by liquid nitrogen, immobilized with optimal cutting temperature compound, and section slices ([…]). The thickness of epidermis was observed under a microscope (Nikon ECLIPSE 80i microscope). APC-Ly6G, as a neutrophil marker, was used to stain neutrophil cells and DAPI was applied for cell nucleus staining. The immunofluorescence was observed by Nikon ECLIPSE 80i microscope.
After performing in vivo chemiluminescence imaging of neutrophils using BTPDNe in psoriasis-bearing mice with 2 day IMQ treatment, fresh section slices from dorsal skins were stained with Ly6G. Immunofluorescence imaging of slices with activated BTPDNe in green color was observed upon excitation at 405 nm and emission at 500-550 nm, while red color from Ly6G was observed upon excitation from 633-647 nm and emission at 660 nm. The immunofluorescence imaging was acquired by Nikon ECLIPSE 80i microscope.

LPS-treated mice = assay: Real-time chemiluminescence imaging in LPS-induced peritonitis model; assay type: in vivo; settings: LPS-treated mice
Method: The model was induced by intraperitoneal injection of LPS (15 ng) in 100 μL of PBS or PBS only as a control. Probe BTPDNe (40 μM·Kg^−1) or MPDNe (40 μM·Kg^−1) in PBS (10 mM, pH 7.4) containing 10% DMSO was intraperitoneally injected in mice. Then, chemiluminescent signals at different post-injection timepoints (0, 5, 10, 20, 45 and 60 min) were recorded using IVIS system bioluminescence with acquiring time of 120 s. After 3 h, the peritoneum was flushed with PBS (5 mL)+EDTA (5 mM). After erythrocyte lysis, neutrophils from C57Bl/6 mice were stained with a PE-labeled CD. After treatment with LPS for 3 h, CD11c antibody and an APC-labeled Ly6G antibody were added to the neutrophils, and the neutrophils were analyzed for double-positive events using flow cytometry (BD Biosciences). Data analysis was performed using Flowjo V10. Neutrophils were gated as CD45+CD11b+Ly6G+cells after the exclusion of doublets.
Fluorescence and chemiluminescence in vivo imaging of the probes were measured by an IVIS spectrum imaging system. Chemiluminescence imaging of the cells was recorded on LX71 inverted microscope. Tissue slices were cut by Leica, Germany slicer and imaged by a Nikon ECLIPSE 80i microscope. The images of tissue sections and cells were recorded with a LSM800 confocal laser scanning microscope. The white light was provided by 150 W LED High Bay Thermo Light.

NE = biological target: T1, NE (Homo sapiens, UniProt P08246); assay: Chemiluminescence and fluorescence changes of BTPDNe and MPDNe in the presence of NE (response, selectivity, LOD, half-life); assay type: biochemical
T1 sequence (P08246 30-267): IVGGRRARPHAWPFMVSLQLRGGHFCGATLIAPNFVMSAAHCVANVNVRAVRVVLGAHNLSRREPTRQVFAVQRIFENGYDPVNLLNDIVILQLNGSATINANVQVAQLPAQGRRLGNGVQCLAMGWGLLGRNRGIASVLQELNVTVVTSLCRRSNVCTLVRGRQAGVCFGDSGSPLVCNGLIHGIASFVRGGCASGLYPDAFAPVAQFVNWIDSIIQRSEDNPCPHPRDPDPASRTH
Method: Chemiluminescence and fluorescence changes of BTPDNe (20 μM) were determined in the presence of NE (0.1 U/ml), other different enzymes (˜0.1 U/mL, APN, ALP, Cas-3, cat B, GGT, β-gal and NTR) in 50 mM Tris, 1 M NaCl, 0.05% (w/v) Brij-35, pH 7.5 at 37° C. after 30 min incubation.
Chemiluminescence and fluorescence changes of BTPDNe and MPDNe (20 μM) in the presence of NE (0.1 U/mL), or other different enzymes (˜0.1 U/mL, APN, ALP, Cas-3, Cat B, GGT, β-gal, NTR, CatG and PR3) were tested after 30 min incubation in 50 mM Tris, 1 M NaCl, 0.05% (w/v) Brij-35, pH 7.5 at 37° C.
To determine the LOD for NE enzyme detection, the chemiluminescence of BTPDNe was recorded in 50 mM Tris, 1 M NaCl, 0.05% (w/v) Brij-35, pH 7.5 at 37° C. with different concentrations of NE (0, 0.05, 0.1, 0.5, 1, and 2 U/ml) for 30 min incubation. Then, initial reaction velocity was calculated.

[4] = Blood test: chemiluminescence after incubation in healthy mouse blood; settings: 20 μM, 30 min, 100 μL blood
Method: BTPDNe (20 μM) and MPDNe (20 μM) were incubated for 30 min in healthy mouse blood (100 μL), respectively. Chemiluminescence intensities were measured by IVIS system bioluminescence with an acquisition time of 60 s.

neutrophils = assay: In vitro cell chemiluminescent imaging; assay type: cell-based; settings: probe 10 μM
Method: 3T3 cells and immune cells (neutrophils, DC cells, T-cells and macrophage) (10^4 cells) were seeded into confocal cell culture dishes (dia. 15 mm) and incubated for 24 h. […] After incubation, the medium was removed, and the cells were washed thrice. Chemiluminescence imaging of the cells were recorded on LX71 inverted microscope (Olympus), which was equipped with infinity 3-1 (Lumenera) CCD camera. During imaging, the excitation light was blocked and the images were recorded under an open filter, with an acquisition time of 60 s.

[5] = Stability of BTPDSu at different pHs (UV spectra); assay type: physicochemical; settings: 20 μM, pH 5-9 buffers with 10% DMSO, 2 h, 37° C.
Method: BTPDSu and ABTPD (20 μM) were stored at different pHs (pH 5, 6, 7, 8 and 9) containing 10% DMSO for 2 h. Then, UV spectra of BTPDSu and fluorescence spectra of ABTPD were measured at different pHs.

[6] = Chemiluminescence quantum yield in the presence of O2•-; assay type: physicochemical; settings: probe 20 μM, O2•- 100 μM, PBS (10 mM, pH 7.4, 10% DMSO), 37° C.
Method: as §1

[7] = Chemiluminescence kinetic studies (half-lives, CL emission) of caged probes in the presence of O2•-; assay type: physicochemical; settings: for CL Emission: caged probe after activation
Method: FIG. […]
[…] The chemiluminescent intensities were plotted as a function of time.
[…] The chemiluminescence signal was recorded by the microplate reader to calculate half-lives of BTPDSu at different pHs.

[8] = Chemiluminescence and fluorescence changes of probes toward O2•- (KO2): response, selectivity, LOD
Method: The chemiluminescence and fluorescence changes of BOPDSu, BTPDSu, MBPDSu and MPDSu (20 μM) were recorded at different concentrations of RONS (40 μM) and other metal ions (100 μM). BOPDSu, BTPDSu, MBPDSu and MPDSu (20 μM) in phosphate buffered saline (PBS) buffer were treated in the presence of different RONS (40 μM), and metal ions (Mg^2+, Ca^2+ or Fe^2+, 100 μM) at 37° C.
The chemiluminescence signals were recorded at different concentrations of KO2 (0, 50, 100, 250, 500 and 1000 nM). Then, the limit of detection (LOD) of BOPDSu, BTPDSu, MBPDSu and MPDSu were calculated by chemiluminescence intensities based on the equation: LOD=3σ/k, where σ is the standard deviation of emission intensity of blank, and k is the slope of plot of emission intensities.

ΦFl, fluorescence QY of activated probe [1]: 33.0%
Compound: COC(=O)c1ccc(-c2nc3ccccc3o2)c(O)c1 [ABOPD]

ΦFl, fluorescence QY of activated probe [1]: 24.1%
Compound: COC(=O)c1ccc(-c2nc3ccccc3s2)c(O)c1 [ABTPD]

ΦFl, fluorescence QY of activated probe [1]: 7.5%
Compound: COC(=O)c1cc(O)c(-c2nc3ccccc3s2)cc1/C=C/c1cc[n+](C)cc1.[I-] [AMBPD]

Compound: COC(=O)/C=C/c1ccc(C(=O)OC)cc1O [AMPD]
ΦFl, fluorescence QY of activated probe [2]: 3.1%

CL Emission [3]: ~515 nm
Compound: COC1(c2ccc(-c3nc4ccccc4s3)c(O)c2)OOC12C1CC3CC(C1)CC2C3 (centres unmarked) [BTPD]

Compound: CC(C)Cn1cnc2c(N)nc3ccccc3c21 [IMQ, Imiquimod]
population of NE-expressing neutrophils in skins relative to CsA-treated group (dorsal skins of mice; day 2, flow cytometry): 2.62 times
population of NE-expressing neutrophils in skins relative to control group (dorsal skins of mice; day 2, flow cytometry): 2.03 times
skin thickness and neutrophil (CD11c+, Ly6G+) population / infiltration (dorsal skins of mice; dorsal skins, histology and immunohistochemistry, vs control group): increased thickness and neutrophil (CD11c+, Ly6G+) infiltration

Compound: COC(=O)/C=C/c1ccc(C2(OC)OOC23C2CC4CC(C2)CC3C4)cc1OCc1ccc(NC(=O)[C@@H](NC(=O)[C@@H]2CCCN2C(=O)[C@H](C)NC(=O)[C@H](C)NC(C)=O)C(C)C)cc1 (some centres unmarked) [MPDNe, reference compound] (Ac-AAPV-X1)
chemiluminescent signals after 60 min (LPS-treated mice; 60 min post injection): not
maximum chemiluminescent signal enhancement in peritoneum relative to negative control group (LPS-treated mice; 3 h post LPS, i.p. probe 40 μM·kg^−1): 8.5 fold
selectivity towards NE over other enzymes (NE; APN, ALP, Cas-3, cat B, GGT, furin, β-gal, NTR, PR3, CatG (~0.1 U/mL)): high selectivity
chemiluminescence enhancement after incubation with NE (NE; probe 20 μM, NE 0.1 U/mL, 50 mM Tris, 1 M NaCl, 0.05% Brij-35, pH 7.5, 37° C., 30 min, BTPDNe at 515 nm, MPDNe at 550 nm): 65.1 fold
chemiluminescence intensities after incubation with healthy mouse blood [4]: Negligible
activated chemiluminescence signal in neutrophils, 30 min (neutrophils; incubation 30 min): 56.4 pixels
activated chemiluminescence signal in neutrophils, 1 h (neutrophils; incubation 1 h): 16.2 pixels

Compound: benzothiazole-phenoxyl-dioxetane [BTPDSu]
stability: UV spectra at different pHs [5]: no obvious changes
ΦCl, chemiluminescence QY [6]: 0.137 einsteins/mol
chemiluminescence signal after 4 h incubation with O2•- ([7]; BTPDSu 100 μM, O2•- 4 eq., PBS (10 mM, pH 7.4, 10% DMSO), 37° C.): still observable by naked eye
CL Emission ([7]; in PBS (10% DMSO) at 37° C.): 520 nm
CL Emission ([7]; in pure DMSO): 485 nm
LOD against O2•- ([8]; KO2 0-1000 nM, PBS (10 mM, pH 7.4, 10% DMSO), 37° C., LOD=3σ/k): 6.8 nM
chemiluminescence intensity increase after addition of O2•- ([8]; probe 20 μM, O2•- 40 μM for 10 s, PBS pH 7.4, 37° C., at 480 / 520 / 580 / 540 nm): 2960 times
fluorescent signal enhancement upon cleavage by O2•- ([8]; probe 20 μM, PBS (10 mM, pH 7.4, 10% DMSO), 37° C., at ~486 / 532 / 582 / 542 nm): 42.1 folds
